The source of these data is US20100204276A1, “INDOLE COMPOUNDS, A PROCESS FOR THEIR PREPARATION AND PHARMACEUTICAL COMPOSITIONS CONTAINING THEM” (LES LABORATOIRES SERVIER, priority 2006, published 2010).

One series has as its target MT1 receptor (Homo sapiens, UniProt P48039). Description: Melatonin MT1 receptor binding study (2-[125I]-iodomelatonin competition). The conditions noted are these: 2-[125I]-iodomelatonin as radioligand, triplicate. As to the method:
(§1) The MT1 or MT2 receptor binding experiments are carried out using 2-[^125I]-iodomelatonin as reference radioligand. The radioactivity retained is determined using a liquid scintillation counter.
(§2) Competitive binding experiments are then carried out in triplicate using the various test compounds. A range of different concentrations is tested for each compound. The results enable the binding affinities (Ki) of the compounds tested to be determined.

Another series addresses T1, MT2 receptor (Homo sapiens, UniProt P49286).
T1 sequence (P49286 1-362): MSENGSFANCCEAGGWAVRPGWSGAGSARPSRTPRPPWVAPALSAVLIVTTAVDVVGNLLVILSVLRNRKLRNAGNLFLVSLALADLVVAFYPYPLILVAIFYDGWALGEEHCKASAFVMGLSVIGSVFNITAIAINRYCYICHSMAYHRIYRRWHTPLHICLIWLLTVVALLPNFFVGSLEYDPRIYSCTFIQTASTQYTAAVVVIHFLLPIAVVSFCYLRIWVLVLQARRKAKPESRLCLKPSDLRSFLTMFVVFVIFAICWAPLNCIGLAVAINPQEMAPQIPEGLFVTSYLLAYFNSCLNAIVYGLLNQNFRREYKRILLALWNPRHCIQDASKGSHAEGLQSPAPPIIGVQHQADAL
Kind of series: Melatonin MT2 receptor binding study (2-[125I]-iodomelatonin competition). As to conditions: 2-[125I]-iodomelatonin as radioligand, triplicate. The method, then:
as §1, §2

Chain of MT1 receptor (P48039 whole entry): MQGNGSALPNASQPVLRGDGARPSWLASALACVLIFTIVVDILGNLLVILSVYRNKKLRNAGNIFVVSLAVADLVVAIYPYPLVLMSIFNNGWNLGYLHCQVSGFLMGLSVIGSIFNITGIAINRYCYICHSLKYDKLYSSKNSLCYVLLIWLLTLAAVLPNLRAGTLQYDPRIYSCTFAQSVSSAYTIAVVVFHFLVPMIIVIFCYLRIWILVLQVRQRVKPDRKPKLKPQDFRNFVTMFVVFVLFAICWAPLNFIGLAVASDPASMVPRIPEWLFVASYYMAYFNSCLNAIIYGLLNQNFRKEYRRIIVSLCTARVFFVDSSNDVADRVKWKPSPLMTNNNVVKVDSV

In general, Ki refers to the equilibrium dissociation constant of an inhibitor or competing ligand from its target. One may read the melting point as the temperature of the solid-liquid transition. The molecule `CCCC(=O)NCCc1c[nH]c2ccc(OCCN3CCCCC3)cc12` [Example 3, N-(2-{5-[2-(1-piperidinyl)ethoxy]-1H-indol-3-yl}ethyl)butanamide] returned a melting point of 113 to 114 °C. Besides, the Ki on MT1 receptor amounted to 11 nM. For the same molecule, the affinity on MT2 receptor corresponds to a Ki of 19 nM.
